# Experimental data taken from ChEMBL document CHEMBL1140922, “Detection of metabolite changes in C6 glioma cells cultured with antimitotic oleyl glycoside by 1H MAS NMR” (2009).
# The source made the active and inactive calls. The rule behind the calls is not given here.
# Tests used:
# C6 [1] = experiment: Effect on metabolic changes in rat C6 cells assessed as ratio of CoA to creatine at 10 uM after 24 hrs by NMR analysis; assay type: functional
# C6 [2] = experiment: Effect on metabolic changes in rat C6 cells assessed as increase in choline signal at 10 uM after 48 hrs by NMR analysis; assay type: functional
# C6 [3] = experiment: Induction of apoptosis in rat C6 cells assessed as DNA fragmentation at 80 uM after 19 hrs by electrophoresis; assay type: functional, cell-based
# C6 [4] = experiment: Induction of apoptosis in rat C6 cells assessed as DNA fragmentation at 40 uM after 19 hrs by electrophoresis; assay type: functional, cell-based
# C6 [5] = experiment: Cytotoxicity against rat C6 cells assessed as necrotic cells at 80 uM after 19 hrs; assay type: functional, cell-based
# C6 [6] = experiment: Induction of apoptosis in rat C6 cells assessed inhibition of cell division; assay type: functional, cell-based
# C6 [7] = experiment: Induction of apoptosis in rat C6 cells assessed cell death at > 40 uM; assay type: functional, cell-based
compound,measurement,setting,value
CCCCCCCC/C=C\CCCCCCCCO[C@H]1O[C@H](CO)[C@@H](O)[C@H](O)[C@H]1NC(C)=O,Ratio,C6 [1],0.32
same,Activity,C6 [2],2.47
same,Activity,C6 [3],Active
same,Activity,C6 [4],Active
same,Activity,C6 [5],inactive
same,Activity,C6 [6],Active
same,Activity,C6 [7],Active
